Assay results reported in US10731159B2, “Cationic lipid” (DAIICHI SANKYO COMPANY, LIMITED, priority 2013, dated 2020).

What was measured:
[1] = Average particle size of nucleic acid lipid particle (NICOMP 380ZLS); type: physicochemical; conditions: Example 57: PLK1424-2/A siRNA, DPPC:Chol:LP:PEG-C-DSA=7:33.5:57:2.5, N/P 3; ± deviation
Experimental: The particle size of the liposome was measured using Zeta Potential/Particle Sizer NICOMP™ 380ZLS (Particle Sizing Systems, LLC). In the tables, the average particle size is indicated by a volume-average particle size, and the numeric value following ±represents a deviation.

[2] = Rate of encapsulation of polynucleotide/mRNA (Quant-iT RiboGreen, with and without Triton X-100); type: physicochemical; conditions: Example 57: PLK1424-2/A siRNA, DPPC:Chol:LP:PEG-C-DSA=7:33.5:57:2.5, N/P 3
Experimental: The rate of encapsulation of the double-stranded polynucleotide was measured using Quant-iT RiboGreen RNA Assay kit (Invitrogen Corp.) according to the attached document.
Specifically, the double-stranded polynucleotide in the nucleic acid lipid particle dispersion was quantified in the presence and absence of a 0.015% Triton X-100 detergent, and the rate of encapsulation was calculated according to the following expression: {[Amount of the double-stranded polynucleotide in the presence of the detergent]−[Amount of the double-stranded polynucleotide in the absence of the detergent]}/[Amount of the double-stranded polynucleotide in the presence of the detergent]}×100(%) (3) Ratio of Double-Stranded Polynucleotide to Lipid
The rate of encapsulation of the mRNA was measured using Quant-iT RiboGreen RNA Assay kit (Invitrogen Corp.) according to the attached document.
Specifically, the mRNA in the nucleic acid lipid particle dispersion was quantified in the presence and absence of a 0.015% Triton X-100 detergent, and the rate of encapsulation was calculated according to the following expression: {[Amount of the mRNA in the presence of the detergent]−[Amount of the mRNA in the absence of the detergent]}/[Amount of the mRNA in the presence of the detergent]}×100(%) (3) Ratio of mRNA to Lipid

[3] = Ratio of polynucleotide/mRNA to lipid (wt/wt); type: physicochemical; conditions: Example 57: PLK1424-2/A siRNA, DPPC:Chol:LP:PEG-C-DSA=7:33.5:57:2.5, N/P 3
Experimental: The nucleic acid lipid particle dispersion was mixed with acetonitrile and chloroform at a ratio of 1:1:1 and centrifuged at 15,000 rpm for 2 minutes. Then, the aqueous layer obtained as an upper layer was recovered, followed by the extraction of the double-stranded polynucleotide. The amount of the double-stranded polynucleotide in the sample was measured by ion-exchange chromatography (system: Agilent 1100 series, column: TSKgel DEAE-2SW (2.6×150 mm) (Tosoh Corp), buffer A: 20% acetonitrile, buffer B: 20% acetonitrile and 1.6 M ammonium formate, gradient (B %): 30-55% (0-20 min), flow rate: 1 mL/min, temperature: 40° C., detection: 260 nm).
The amount of the phospholipid in the nucleic acid lipid particle dispersion was measured using Phospholipid C-Test Wako (Wako Pure Chemical Industries Ltd.) according to the attached document. Specifically, the phospholipid in the sample was quantified in the presence of a 1% Triton X-100 detergent.
The amounts of cholesterol and LP in the nucleic acid lipid particle dispersion were measured by reverse-phase chromatography (system: Agilent 1100 series, column: Chromolith Performance RP-18 endcapped 100-3 monolithic HPLC-column (Merck), buffer A: 0.01% trifluoroacetic acid, buffer B: 0.01% trifluoroacetic acid and methanol, gradient (B %): 87-92% (0-10 min), flow rate: 2 mL/min, temperature: 50° C., detection: 205 nm).
The total amount of lipids was calculated from the amount of the phospholipid and the compositional ratio of lipid components constituting the liposome, and the ratio of the polynucleotide to the lipid was calculated from the aforementioned amount of the polynucleotide and the total amount of lipids according to the following expression: [Double-stranded polynucleotide concentration]/[Total lipid concentration] (wt/wt)
The total amount of lipids was calculated from the amount of the phospholipid, the amount of cholesterol, and the amount of LP, and the compositional ratio of lipid components constituting the liposome, and the ratio of the polynucleotide to the lipid was calculated from the aforementioned amount of the polynucleotide and the total amount of lipids according to the following expression: [Double-stranded polynucleotide concentration]/[Total lipid concentration] (wt/wt)
The amount of the double-stranded polynucleotide in a sample from the nucleic acid lipid particle dispersion was measured in the presence of a 5% Triton X-100 detergent by ion-exchange chromatography (system: Agilent 1100 series, column: DNAPac PA200 (4×250 mm) (Thermo Fisher Scientific K.K.), buffer A: 10 mM Tris, 25 mM sodium perchlorate, and 20% ethanol, pH 7.0, buffer B: 10 mM Tris, 250 mM sodium perchlorate, and 20% ethanol, pH 7.0, gradient (B %): 20-70% (0-15 min), flow rate: 0.5 mL/min, temperature: 40° C., detection: 260 nm).
The amounts of cholesterol and LP in the nucleic acid lipid particle dispersion were measured by reverse-phase chromatography (system: Agilent 1100 series, column: Chromolith Performance RP-18 endcapped 100-3 monolithic HPLC-column (Merck), buffer A: 0.01% trifluoroacetic acid, buffer B: 0.01% trifluoroacetic acid and methanol, gradient (B %): 82-92% (0-10 min), flow rate: 2 mL/min, temperature: 50° C., detection: 205 nm).
The total amount of lipids was calculated from the amount of the phospholipid, the amount of cholesterol, and the amount of LP, and the compositional ratio of lipid components constituting the liposome, and the ratio of the mRNA to the lipid was calculated from the “amount of the mRNA in the presence of the detergent” of the preceding paragraph (2) according to the following expression: [mRNA concentration in the presence of the detergent]/[Total lipid concentration] (wt/wt)

human PLK-1 gene = assay: Test Example 10: PLK-1 expression inhibition in Hep3B tumor of nude mice; type: in vivo; conditions: nude mice with subcutaneous Hep3B tumor, i.v. 1 mg/kg and 3 mg/kg, tumor collected the day after administration; particles of Example 57
Experimental: After acclimatization and raising of each nude mouse (CAnN.Cg-Foxn1[nu]/CrlCrlj[Foxn1nu/Foxn1nu]) for 8 days, cultured human Hep3B cells (1×10^7 cells/mouse) were subcutaneously transplanted to the right lateral region of the mouse. 19 days after the tumor transplantation, the mice were grouped with the tumor volume as an index, and, on the next day, the nucleic acid lipid particle-containing dispersion prepared in Example 57 was intravenously administered (administered at doses of 1 mg/kg and 3 mg/kg) to the tail of each mouse. PBS was administered to a control group. On the day after the administration of the nucleic acid lipid particle, a tumor mass was collected from the cancer-bearing mouse, and a nucleic acid was extracted using QIAzol Lysis Reagent (manufactured by Qiagen N.V.) and chloroform. Then, total RNA was purified using QIAGNE RNeasy Plus Mini kit (manufactured by Qiagen N.V.) according to the attached protocol.
16 μL of the purified RNA and 4 μL of SuperScript VILO Master mix (Life Technologies, Inc.) were mixed and used in RT reaction under conditions given below.
RT reaction: 25° C. for 10 min • 42° C. for 60 min • 85° C. for 5 min. […]
The quantitative analysis was conducted by the ΔΔCt method. A value (ΔΔCt) was determined by subtracting ΔCt of the PBS administration group from the difference in Ct value (ΔCt) between human PLK-1 and human GAPDH in the administration group of each nucleic acid lipid particle, and a relative value (RQ) to the PBS administration group, RQmax, and RQmin were calculated according to the following expressions: RQ=2^−ΔΔCt RQmax=2^−95% CI of ΔΔCt (95% CI of ΔΔCt: the maximum value of 95% confidence interval of ΔΔCt) RQmin=2^−95% CI of ΔΔCt (95% CI of ΔΔCt: the minimum value of 95% confidence interval of ΔΔCt)
In the diagram, error bars were calculated according to the following expression: +error bars:RQmax−RQ,−error bars:RQ−RQmin)

Compound	Average particle size [1] [nm]	Rate of polynucleotide encapsulation [2] [%]	Ratio of polynucleotide to lipid siRNA/lipid [3] [wt/wt]	PLK-1 expression inhibitory activity in tumor (in words, FIG. 5) (human PLK-1 gene)
CCCCCCCCCCCCCCCCCC(CCCCCCCCCC)OC(=O)OCCCN(C)C (stereo not drawn) [Example 19, 3-(Dimethylamino)propyloctacosan-11-yl Carbonate]	103 ± 16	97	0.095	strong PLK-1 expression inhibitory activity
CCCCCCCCCCCCCCCCCCCC(CCCCCCCCCC)OC(=O)OCCCN(C)C (stereo not drawn) [Example 45, 3-(Dimethylamino)propyl triacontan-11-yl Carbonate]	100 ± 27	96	0.093	strong PLK-1 expression inhibitory activity
CCCCC/C=C\C/C=C\CCCCCCCCC(COCCCCCCCC/C=C\C[C@@H](CCCCCC)OC(C)=O)OC(=O)OCCCN(C)C (stereo partly drawn) [Example 54, (20,23R)-2-Methyl-9-[(9Z,12Z)-octadeca-9,12-dien-1-yl]-7-oxo-6,8,11-trioxa-2-azanonacos-20-en-23-yl Acetate]	127 ± 29	98	0.078	strong PLK-1 expression inhibitory activity
